Measurements published in US20230157996A1, “SMALL-MOLECULE INHIBITOR TARGETING EB VIRUS NUCLEAR ANTIGEN PROTEIN, PREPARATION METHOD AND USE THEREOF” (priority 2020, published 2023).

System: C666-1 cells
Assay: C666-1 cell viability single concentration (50 μM) inhibition rate (Resazurin)
Assay type: cell-based
Conditions: Homo sapiens, C6661, 72 h, 50 μM compound, 72 hours, C666-1 cells; read-out: C666-1 cell viability single concentration (50 μM) inhibition rate, Ratio* (Inh %)
Description: In order to assess the effect of the EBNA1 inhibitor at the cellular level, the cell proliferation inhibition rate was tested, and the inhibition rate of inhibitor at a specific concentration on the proliferation of Epstein-Barr virus positive cell line C666-1 was detected.
In the test, 100 μL C666-1 cells were inoculated in a transparent 96-well plate, and each well contained 5×10^3 cells. After the cells were cultured in an incubator with 5% carbon dioxide at 37° C. for 24 hours, 10 μL compound at a concentration of 500 μmol/L was added into the cells, so that the final concentration of the compound was 50 μmol/L. Two replicate wells were set for each compound, the wells treated with DMSO were set as control wells (Ctrl), and the wells with cell culture medium only were set as blank wells (blank), and they were treated in the incubator with carbon dioxide at 37° C. for 72 hours. The cell viability was assessed using a redox indicator Resazurin. Specifically, 10 μL Resazurin at a concentration of 600 umol/L was added into each well, and incubated at 37° C. for 3 hours, and a Tecan microplate reader was used to detect the fluorescence signal at an excitation wavelength of 560 nm and an emission wavelength of 590 nm. The formula inh %=1−(F−Fblank)/(FCtrl−Fblank)×100% (where, F is the fluorescence intensity of the compound-added wells, FCtrl and Fblank are the readings of the control wells and blank wells, respectively) was used to calculate the inhibition rate of the compound on the proliferation of C666-1 cells, so as to assess the activity of the compound on Epstein-Barr virus positive cells.

Row | Compound | inhibition at 50 µM [%]
1 | O=C(O)c1cccc(N2CC(Oc3ccc(CO)cc3)C2)c1-n1cccc1 [Compound 38, 3-(3-(4-(hydroxymethyl)phenoxy)azetidin-1-yl)-2-(1H-pyrrol-1-yl)benzoic acid] | < 10
2 | COC(=O)c1cccc(N2CC(Oc3ccc(CO)cc3)C2)c1-c1ccc2cc[nH]c2c1 [Compound 39, Methyl 3-(3-(4-(hydroxymethyl)phenoxy)azetidin-1-yl)-2-(1H-indol-6-yl)benzoate] | 30 to 50
3 | O=C(O)c1cccc(N2CC(Oc3ccc(CO)cc3)C2)c1-c1ccc2cc[nH]c2c1 [Compound 40, 3-(3-(4-(hydroxymethyl)phenoxy)azetidin-1-yl)-2-(1H-indol-6-yl)benzoic acid] | < 10
4 | COC(=O)c1cccc(N2CC(Oc3ccc(CO)cc3)C2)c1-c1ccccc1 [Compound 41, Methyl 6-(3-(4-(hydroxymethyl)phenoxy)azetidin-1-yl)-[1,1′-biphenyl]-2-formate] | 10 to 30
5 | O=C(O)c1cccc(N2CC(Oc3ccc(CO)cc3)C2)c1-c1ccccc1 [Compound 42] | < 10
6 | COC(=O)c1cccc(N2CC(Oc3ccc(CO)cc3)C2)c1-c1ccc2ccsc2c1 [Compound 43, Methyl 2-(benzo[b]thiophen-6-yl)-3-(3-(4-(hydroxymethyl)phenoxy)azetidin-1-yl)benzoate] | 10 to 30
7 | O=C(O)c1cccc(N2CC(Oc3ccc(CO)cc3)C2)c1-c1ccc2ccsc2c1 [Compound 44, 2-(benzo[b]thiophen-6-yl)-3-(3-(4-(hydroxymethyl)phenoxy)azetidin-1-yl)benzoic acid] | < 10
8 | COC(=O)c1cccc(N2CC(Oc3ccc(CO)cc3)C2)c1-c1ccc2nsnc2c1 [Compound 45, Methyl 2-(benzo[c][1,2,5]thiadiazol-5-yl)-3-(3-(4-(hydroxymethyl)phenoxy)azetidin-1-yl)benzoate] | 10 to 30
9 | O=C(O)c1cccc(N2CC(Oc3ccc(CO)cc3)C2)c1-c1ccc2nsnc2c1 [Compound 46] | < 10
10 | COC(=O)c1cccc(N2CC(Oc3ccc(CO)cc3)C2)c1-c1ccco1 [Compound 47] | 30 to 50
11 | COC(=O)c1cccc(N2CC(Oc3ccc(CO)cc3)C2)c1-c1ccoc1 [Compound 48] | > 50
12 | O=C(O)c1cccc(N2CC(Oc3ccc(CO)cc3)C2)c1-c1ccoc1 [Compound 49] | < 10
13 | COC(=O)c1cccc(N2CC(Oc3ccc(CO)cc3)C2)c1-c1cccc(F)c1 [Compound 50] | 10 to 30
14 | O=C(O)c1cccc(N2CC(Oc3ccc(CO)cc3)C2)c1-c1cccc(F)c1 [Compound 51] | < 10
15 | O=C(O)c1cccc(N2CC(Oc3ccc(CO)cc3)C2)c1-c1ccc2ccoc2c1 [Compound 52] | < 10
16 | COC(=O)c1cccc(N2CC(Oc3ccc(CO)cc3)C2)c1-c1cccc(Cl)c1 [Compound 53, Methyl 3′-chloro-6-(3-(4-(hydroxymethyl)phenoxy)azetidin-1-yl)-[1,1′-biphenyl]-2-formate] | 10 to 30
17 | O=C(O)c1cccc(N2CC(Oc3ccc(CO)cc3)C2)c1-c1cccc(Cl)c1 [Compound 54] | 30 to 50
18 | COC(=O)c1cccc(N2CC(Oc3ccc(CO)cc3)C2)c1-c1cccc(C#N)c1 [Compound 55] | 10 to 30
19 | O=C(O)c1cccc(-c2c(C(=O)O)cccc2N2CC(Oc3ccc(CO)cc3)C2)c1 [Compound 56] | < 10
20 | COC(=O)c1cccc(N2CC(Oc3ccc(CO)cc3)C2)c1-c1ccc(Cl)cc1 [Compound 57] | 10 to 30
21 | O=C(O)c1cccc(N2CC(Oc3ccc(CO)cc3)C2)c1-c1ccc(Cl)cc1 [Compound 58, 4′-chloro-6-(3-(4-(hydroxymethyl)phenoxy)azetidin-1-yl)-[1,1′-biphenyl]-2-formic acid] | < 10

Row | Compound | inhibition at 50 µM [%]
22 | COC(=O)c1cccc(N2CC(Oc3ccc(CO)cc3)C2)c1-c1cccc(C(F)(F)F)c1 [Compound 59, Methyl 3′-(trifluoromethyl)-6-(3-(4-(hydroxymethyl)phenoxy)azetidin-1-yl)-[1,1′-biphenyl]-2-formate] | 10 to 30
23 | O=C(O)c1cccc(N2CC(Oc3ccc(CO)cc3)C2)c1-c1cccc(C(F)(F)F)c1 [Compound 60, 3′-(trifluoromethyl)-6-(3-(4-(hydroxymethyl)phenoxy)azetidin-1-yl)-[1,1′-biphenyl]-2-formic acid] | < 10
24 | COC(=O)c1cccc(N2CC(Oc3ccc(CO)cc3)C2)c1-c1cc(F)cc(F)c1 [Compound 61, Methyl 3′,5′-difluoro-6-(3-(4-(hydroxymethyl)phenoxy)azetidin-1-yl)-[1,1′-biphenyl]-2-formate] | 10 to 30
25 | O=C(O)c1cccc(N2CC(Oc3ccc(CO)cc3)C2)c1-c1cc(F)cc(F)c1 [Compound 62, 3′,5′-difluoro-6-(3-(4-(hydroxymethyl)phenoxy)azetidin-1-yl)-[1,1′-biphenyl]-2-formic acid] | < 10
26 | COC(=O)c1cccc(N2CC(Oc3ccc(CO)cc3)C2)c1-c1ccc(-c2ccccc2)cc1 [Compound 63, Methyl 6-(3-(4-(hydroxymethyl)phenoxy)azetidin-1-yl)-[1,1′:4′,1″-terphenyl]-2-formate] | 10 to 30
27 | O=C(O)c1cccc(N2CC(Oc3ccc(CO)cc3)C2)c1-c1ccc(-c2ccccc2)cc1 [Compound 64, 6-(3-(4-(hydroxymethyl)phenoxy)azetidin-1-yl)-[1,1′:4′,1″-terphenyl]-2-formic acid] | > 50
28 | COC(=O)c1cccc(N2CC(Oc3ccc(CO)cc3)C2)c1-c1cccc(NS(C)(=O)=O)c1 [Compound 65, Methyl 3′-(methylsulfonamido)-6-(3-(4-(hydroxymethyl)phenoxy)azetidin-1-yl)-[1,1′-biphenyl]-2-formate] | 30 to 50
29 | COC(=O)c1cccc(N2CC(Oc3ccc(CO)cc3)C2)c1-c1cccc(OC)c1 [Compound 66, Methyl 3′-methoxy-6-(3-(4-(hydroxymethyl)phenoxy)azetidin-1-yl)-[1,1′-biphenyl]-2-formate] | 30 to 50
30 | COc1cccc(-c2c(C(=O)O)cccc2N2CC(Oc3ccc(CO)cc3)C2)c1 [Compound 67, 3′-methoxy-6-(3-(4-(hydroxymethyl)phenoxy)azetidin-1-yl)-[1,1′-biphenyl]-2-formic acid] | < 10
31 | COC(=O)c1cccc(N2CC(Oc3ccc(CO)cc3)C2)c1-c1ccc(F)c(C#N)c1 [Compound 68, Methyl 3′-cyano-4′-fluoro-6-(3-(4-(hydroxymethyl)phenoxy)azetidin-1-yl)-[1,1′-biphenyl]-2-formate] | 10 to 30
32 | COC(=O)c1cccc(N2CC(Oc3ccc(CO)cc3)C2)c1-n1cccn1 [Compound 69, Methyl 3-(3-(4-(hydroxymethyl)phenoxy)azetidin-1-yl)-2-(1H-pyrazol-1-yl)benzoate] | 10 to 30
33 | O=C(O)c1cccc(N2CC(Oc3ccc(CO)cc3)C2)c1-n1cccn1 [Compound 70, 3-(3-(4-(hydroxymethyl)phenoxy)azetidin-1-yl)-2-(1H-pyrazol-1-yl)benzoic acid] | < 10
34 | O=C(O)c1cccc(OC2CN(c3cccc(C(=O)NCc4ccccc4)c3)C2)c1 [Compound 71, 3-((1-(3-(benzylcarbamoyl)phenyl)azetidin-3-yl)oxy)benzoic acid] | < 10
35 | Nc1c(C(=O)O)cccc1N1CC(Oc2cccc(C(=O)O)c2)C1 [Compound 72, 3-(3-(3-carboxylphenoxy)azetidin-1-yl)-2-aminobenzoic acid] | < 10
36 | O=C(O)c1cccc(OC2CN(c3cccc(C(=O)O)c3-n3cccc3)C2)c1 [Compound 73, 3-(3-(3-carboxylphenoxy)azetidin-1-yl)-2-(1H-pyrrol-1-yl)benzoic acid] | < 10
37 | COC(=O)c1cccc(N2CC(Oc3ccc(COC(C)=O)cc3)C2)c1-n1cccc1 [Compound 74, Methyl 3-(3-(4-(acetoxylmethyl)phenoxy)azetidin-1-yl)-2-(1H-pyrrol-1-yl)benzoate] | < 10
38 | CCCCCCCC(=O)OCc1ccc(OC2CN(c3cccc(C(=O)OC)c3-n3cccc3)C2)cc1 [Compound 75, Methyl 3-(3-(4-((octanoyloxy)methyl)phenoxy)azetidin-1-yl)-2-(1H-pyrrol-1-yl)benzoate] | 10 to 30
39 | COC(=O)c1cccc(N2CC(Oc3ccc(CNC(C)=O)cc3)C2)c1-n1cccc1 [Compound 76, Methyl 3-(3-(4-(acetylaminomethyl)phenoxy)azetidin-1-yl)-2-(1H-pyrrol-1-yl)benzoate] | 10 to 30
40 | CC(=O)NCc1ccc(OC2CN(c3cccc(C(=O)O)c3-n3cccc3)C2)cc1 [Compound 77, 3-(3-(4-(acetylaminomethyl)phenoxy)azetidin-1-yl)-2-(1H-pyrrol-1-yl)benzoic acid] | < 10
41 | COC(=O)c1cccc(N2CC(Oc3ccc(CNS(=O)(=O)C4CC4)cc3)C2)c1-n1cccc1 [Compound 78, Methyl 3-(3-(4-(cyclopropylsulfonamidomethyl)phenoxy)azetidin-1-yl)-2-(1H-pyrrol-1-yl)benzoate] | > 50
